According to patent US11464749B2, “Bismuth-thiol compositions and methods of use” (Microbion Corporation, priority 2018, dated 2022):
Converted amounts (≈) assume the structure as drawn.

How the values were obtained:
[1] = tested on: Staphylococcus aureus (MRSA); test: Broth microdilution MIC (Example 11)
E. faecalis = test: Broth microdilution MIC (Example 11); details: Enterococcus faecalis, VRE, VRE Lev^R Cip^R Ery^R
S. pneumoniae = test: Broth microdilution MIC (Example 11); details: Streptococcus pneumoniae
S. pyogenes = test: Broth microdilution MIC (Example 11); details: Streptococcus pyogenes
S. agalactiae = test: Broth microdilution MIC (Example 11); details: Streptococcus agalactiae
[2] = tested on: vancomycin-intermediate Staphylococcus aureus (VISA); test: Broth microdilution MIC (Example 12); details: Staphylococcus aureus, NRS13 / VISA, read-out: MIC values
B. cepacia [3] = test: FIC checkerboard assay; type: cell-based; details: during FIC testing
B. cepacia [4] = test: Broth microdilution MIC (Example 10); details: initial MIC testing
Escherichia coli = test: Broth microdilution MIC (Example 12)
Klebsiella pneumoniae = test: Broth microdilution MIC (Example 12)
Pseudomonas aeruginosa = test: Broth microdilution MIC (Example 12)
Acinetobacter baumannii = test: Broth microdilution MIC (Example 12)
Haemophilus influenzae = test: Broth microdilution MIC against Haemophilus influenzae clinical isolates; details: Haemophilus influenzae
[5] = ATCC29213|MRSA|MSSA, S. aureus MMX 101 (ATCC 29213), QC, MSSA
[6] = MRSA, S. aureus MMX 5373, MRSA Lev^R Cip^R CC^R Ery^R Ox^R
[7] = MRSA, S. aureus MMX 6311, MRSA Lev^R Cip^R CC^R Ery^R Ox^R
[8] = MRSA, S. aureus MMX 9203, MRSA Lev^R Cip^R Ery^R Ox^R
[9] = MRSA, S. aureus MMX 9204, MRSA Lev^R Cip^R Ery^R Ox^R
[10] = MRSA, S. aureus MMX 9205, MRSA Lev^R Cip^R CC^R Ery^R Ox^R
[11] = ATCC49619, S. pneumoniae MMX 6837 (ATCC 49619), QC
[12] = S. pneumoniae MMX 880, Lev^R SXT^R CC^R Ery^R Pen^R
[13] = S. pneumoniae MMX 937, Mem^R SXT^R CC^R Ery^R Pen^R
[14] = S. pneumoniae MMX 3959, CC^R Ery^R
[15] = S. pneumoniae MMX 5440, Mem^R SXT^R CC^R Ery^R Pen^R
[16] = S. pneumoniae MMX 5445, Mem^R SXT^R CC^R Ery^R Pen^R
[17] = S. pneumoniae MMX 8133, Mem^R SXT^R CC^R Ery^R Pen^R
[18] = S. agalactiae MMX 3741, ERY^R CC^R
[19] = S. agalactiae MMX 3743, ERY^R CC^R
[20] = S. agalactiae MMX 4077, ERY^R CC^R
[21] = S. agalactiae MMX 4079, ERY^R CC^R Pen^R MEM^R
[22] = S. agalactiae MMX 4086, ERY^R CC^R

CC[C@H]1OC(=O)[C@H](C)[C@@H](O[C@H]2C[C@@](C)(OC)[C@@H](O)[C@H](C)O2)[C@H](C)[C@@H](O[C@@H]2O[C@H](C)C[C@H](N(C)C)[C@H]2O)[C@](C)(O)C[C@@H](C)C(=O)[C@H](C)[C@@H](O)[C@]1(C)O [Erythromycin]
MIC [1, 5]: 0.5 µg/mL (≈ 0.681 µM) | MIC [1, 6]: > 64 µg/mL | MIC [1, 7]: > 64 µg/mL | MIC [1, 8]: > 64 µg/mL | MIC [1, 9]: > 64 µg/mL | MIC [1, 10]: > 64 µg/mL | MIC (E. faecalis; E. faecalis MMX 8960): > 64 µg/mL | MIC (E. faecalis; E. faecalis MMX 8961): > 64 µg/mL | MIC (E. faecalis; E. faecalis MMX 8962): > 64 µg/mL | MIC (S. pneumoniae; [11]): 0.03 µg/mL (≈ 0.0409 µM) | MIC (S. pneumoniae; [12]): > 8 µg/mL | MIC (S. pneumoniae; [13]): > 8 µg/mL | MIC (S. pneumoniae; [14]): > 8 µg/mL | MIC (S. pneumoniae; [15]): > 8 µg/mL | MIC (S. pneumoniae; [16]): > 8 µg/mL | MIC (S. pneumoniae; [17]): > 8 µg/mL | MIC (S. pyogenes; S. pyogenes MMX 3068, Ery^R): > 8 µg/mL | MIC (S. pyogenes; S. pyogenes MMX 3820, ERY^R CLI^R): > 8 µg/mL | MIC (S. pyogenes; S. pyogenes MMX 3919, ERY^R): > 8 µg/mL | MIC (S. pyogenes; S. pyogenes MMX 3929, ERY^R CC^R): > 8 µg/mL | MIC (S. pyogenes; S. pyogenes MMX 5091, ERY^R CC^R): > 8 µg/mL | MIC (S. agalactiae; [18]): 8 µg/mL (≈ 10.9 µM) | MIC (S. agalactiae; [19]): > 8 µg/mL | MIC (S. agalactiae; [20]): > 8 µg/mL | MIC (S. agalactiae; [21]): > 8 µg/mL | MIC (S. agalactiae; [22]): > 8 µg/mL

CN[C@H](CC(C)C)C(=O)N[C@H]1C(=O)N[C@@H](CC(N)=O)C(=O)N[C@H]2C(=O)N[C@H]3C(=O)N[C@H](C(=O)N[C@H](C(=O)O)c4cc(O)cc(O)c4-c4cc3ccc4O)[C@H](O)c3ccc(c(Cl)c3)Oc3cc2cc(c3O[C@@H]2O[C@H](CO)[C@@H](O)[C@H](O)[C@H]2O[C@H]2C[C@](C)(N)[C@H](O)[C@H](C)O2)Oc2ccc(cc2Cl)[C@H]1O [vancomycin]
MIC [1, 5]: 1 µg/mL (≈ 0.69 µM) | MIC [1, 6]: 2 µg/mL (≈ 1.38 µM) | MIC [1, 7]: 0.25 µg/mL (≈ 0.173 µM) | MIC [1, 8]: 2 µg/mL (≈ 1.38 µM) | MIC [1, 9]: 1 µg/mL (≈ 0.69 µM) | MIC [1, 10]: 2 µg/mL (≈ 1.38 µM) | MIC (S. pneumoniae; [11]): 0.25 µg/mL (≈ 0.173 µM) | MIC (S. pneumoniae; [12]): 0.5 µg/mL (≈ 0.345 µM) | MIC (S. pneumoniae; [13]): 0.5 µg/mL (≈ 0.345 µM) | MIC (S. pneumoniae; [14]): 0.5 µg/mL (≈ 0.345 µM) | MIC (S. pneumoniae; [15]): 0.25 µg/mL (≈ 0.173 µM) | MIC (S. pneumoniae; [16]): 0.25 µg/mL (≈ 0.173 µM) | MIC (S. pneumoniae; [17]): 0.25 µg/mL (≈ 0.173 µM) | MIC (S. pyogenes): 0.5 µg/mL (≈ 0.345 µM) | MIC (S. agalactiae; [18]): 0.5 µg/mL (≈ 0.345 µM) | MIC (S. agalactiae; [19]): 0.5 µg/mL (≈ 0.345 µM) | MIC (S. agalactiae; [20]): 0.5 µg/mL (≈ 0.345 µM) | MIC (S. agalactiae; [21]): 2 µg/mL (≈ 1.38 µM) | MIC (S. agalactiae; [22]): 1 µg/mL (≈ 0.69 µM) | MIC [2]: 2 µg/mL (≈ 1.38 µM)

Cc1onc(-c2ccccc2)c1C(=O)N[C@@H]1C(=O)N2[C@@H]1SC(C)(C)[C@@H]2C(=O)O [Oxacillin]
MIC [1, 7]: 32 µg/mL (≈ 79.7 µM) | MIC (E. faecalis; E. faecalis MMX 8962): 16 µg/mL (≈ 39.9 µM)

NCC[C@H](O)C(=O)N[C@@H]1C[C@H](N)[C@@H](O[C@H]2O[C@H](CN)[C@@H](O)[C@H](O)[C@H]2O)[C@H](O)[C@H]1O[C@H]1O[C@H](CO)[C@@H](O)[C@H](N)[C@H]1O [AMK]
MIC (B. cepacia [3]; B. cepacia isolate 0546): 64 µg/mL | MIC (B. cepacia [3]; B. cepacia isolate 1793): 32 µg/mL | MIC (B. cepacia [4]; B. cepacia isolate 0546): 64 µg/mL (≈ 109 µM) | MIC (B. cepacia [4]; B. cepacia isolate 1793): 64 µg/mL (≈ 109 µM) | MIC (Escherichia coli; E. coli ATCC 35218, ESBL): 1 µg/mL (≈ 1.71 µM) | MIC (Escherichia coli; E. coli ATCC 35218, QC organism (Table 102)): 1 µg/mL (≈ 1.71 µM) | MIC (Escherichia coli; E. coli ATCC BAA-2471, NDM): 64 µg/mL (≈ 109 µM) | MIC (Escherichia coli; E. coli CDC 114, ESBL/KPC): 1 µg/mL (≈ 1.71 µM) | MIC (Escherichia coli; E. coli CDC 118, ESBL/NDM): >64 µg/mL | MIC (Escherichia coli; E. coli CDC 435, NDM): >64 µg/mL | MIC (Escherichia coli; E. coli CDC 451, KPC): 4 µg/mL (≈ 6.83 µM) | MIC (Escherichia coli; E. coli CDC 503, ESBL/NDM): >64 µg/mL | MIC (Escherichia coli; E. coli MMX 5745, KPC): 0.5 µg/mL (≈ 0.854 µM) | MIC (Escherichia coli; E. coli MMX 5755, ESBL): 16 µg/mL (≈ 27.3 µM) | MIC (Escherichia coli; E. coli MMX 5756, ESBL): 64 µg/mL (≈ 109 µM) | MIC (Escherichia coli; E. coli MMX 5758, ESBL): 1 µg/mL (≈ 1.71 µM) | MIC (Klebsiella pneumoniae; K. pneumoniae ATCC BAA-1705, ESBL/KPC): 16 µg/mL (≈ 27.3 µM) | MIC (Klebsiella pneumoniae; K. pneumoniae ATCC BAA-1705, QC organism (Table 102)): 16 µg/mL (≈ 27.3 µM) | MIC (Klebsiella pneumoniae; K. pneumoniae CDC 112, KPC): 16 µg/mL (≈ 27.3 µM) | MIC (Klebsiella pneumoniae; K. pneumoniae CDC 113, ESBL/KPC): 16 µg/mL (≈ 27.3 µM) | MIC (Klebsiella pneumoniae; K. pneumoniae CDC 115, ESBL/KPC): 0.5 µg/mL (≈ 0.854 µM) | MIC (Klebsiella pneumoniae; K. pneumoniae CDC 120, ESBL/KPC): 16 µg/mL (≈ 27.3 µM) | MIC (Klebsiella pneumoniae; K. pneumoniae CDC 126, ESBL/KPC): 2 µg/mL (≈ 3.42 µM) | MIC (Klebsiella pneumoniae; K. pneumoniae CDC 129, ESBL/KPC): 32 µg/mL (≈ 54.6 µM) | MIC (Klebsiella pneumoniae; K. pneumoniae CDC 135, ESBL/VIM): 16 µg/mL (≈ 27.3 µM) | MIC (Klebsiella pneumoniae; K. pneumoniae CDC 138, ESBL/NDM): >64 µg/mL | MIC (Klebsiella pneumoniae; K. pneumoniae CDC 158, ESBL/NDM/OXA): 2 µg/mL (≈ 3.42 µM) | MIC (Klebsiella pneumoniae; K. pneumoniae MMX 9029, ESBL): 0.5 µg/mL (≈ 0.854 µM) | MIC (Pseudomonas aeruginosa; P. aeruginosa CDC 230, VIM/OXA): >64 µg/mL | MIC (Pseudomonas aeruginosa; P. aeruginosa CDC 231, KPC/OXA): 8 µg/mL (≈ 13.7 µM) | MIC (Pseudomonas aeruginosa; P. aeruginosa CDC 241, IMP/OXA): 32 µg/mL (≈ 54.6 µM) | MIC (Pseudomonas aeruginosa; P. aeruginosa CDC 246, NDM/OXA): >64 µg/mL | MIC (Pseudomonas aeruginosa; P. aeruginosa CDC 250, NDM/OXA): >64 µg/mL | MIC (Pseudomonas aeruginosa; P. aeruginosa CDC 356, KPC): 2 µg/mL (≈ 3.42 µM) | MIC (Pseudomonas aeruginosa; P. aeruginosa CDC 439, IMP): >64 µg/mL | MIC (Pseudomonas aeruginosa; P. aeruginosa CDC 444, VIM): >64 µg/mL | MIC (Pseudomonas aeruginosa; P. aeruginosa CDC 457, VIM): 2 µg/mL (≈ 3.42 µM) | MIC (Pseudomonas aeruginosa; P. aeruginosa CDC 516, KPC/AmpC): 2 µg/mL (≈ 3.42 µM) | MIC (Pseudomonas aeruginosa; P. aeruginosa CDC 518, KPC/AmpC): 16 µg/mL (≈ 27.3 µM) | MIC (Acinetobacter baumannii; A. baumannii CDC 273, ESBL/OXA): >64 µg/mL | MIC (Acinetobacter baumannii; A. baumannii CDC 274, ESBL/OXA): 16 µg/mL (≈ 27.3 µM) | MIC (Acinetobacter baumannii; A. baumannii CDC 275, ESBL/OXA): >64 µg/mL | MIC (Acinetobacter baumannii; A. baumannii CDC 277, ESBL/OXA): 16 µg/mL (≈ 27.3 µM) | MIC (Acinetobacter baumannii; A. baumannii CDC 284, ESBL/OXA): 32 µg/mL (≈ 54.6 µM) | MIC (Acinetobacter baumannii; A. baumannii CDC 307, OXA): >64 µg/mL | MIC (Acinetobacter baumannii; A. baumannii CDC 308, ESBL/OXA): >64 µg/mL | MIC (Acinetobacter baumannii; A. baumannii CDC 311, OXA): >64 µg/mL | MIC (Acinetobacter baumannii; A. baumannii CDC 312, OXA): 1 µg/mL (≈ 1.71 µM) | MIC (Acinetobacter baumannii; A. baumannii CDC 313, ESBL/OXA): 4 µg/mL (≈ 6.83 µM) | MIC (Acinetobacter baumannii; A. baumannii NCTC 13304, OXA): 0.5 µg/mL (≈ 0.854 µM)

CC1(C)S[C@@H]2[C@H](NC(=O)[C@H](N)c3ccccc3)C(=O)N2[C@H]1C(=O)O [ampicillin, Ampicillin]
MIC50 (Haemophilus influenzae): 2 µg/mL (≈ 5.72 µM) | MIC90 (Haemophilus influenzae): 4 µg/mL (≈ 11.4 µM)

CO/N=C(\C(=O)N[C@@H]1C(=O)N2C(C(=O)O)=C(COC(N)=O)CS[C@H]12)c1ccco1 [cefuroxime, Cefuroxime]
MIC50 (Haemophilus influenzae): 4 µg/mL (≈ 9.43 µM) | MIC90 (Haemophilus influenzae): 16 µg/mL (≈ 37.7 µM)
